Values belong to the molecule of their own block, whether it stands above or below them.
Assays:
IRE-1α [1] = target: T1, IRE-1α (Homo sapiens (Human), UniProt O75460); test: IRE-1α assay: in vitro cleavage of mini-XBP-1 mRNA stem-loop substrate by GST-IRE-1α; format: biochemical
Procedure: A fusion protein comprising glutathione S transferase (GST) and human IRE-1α (GST-IRE-1α) was obtained from a 500 ml baculovirus-infected insect cell culture and used to measure IRE-1α activity in vitro.
Five μl of a reaction mixture comprising 1× reaction buffer (5× reaction buffer is 100 mM Hepes pH 7.5, 250 mM KOAc, 2.5 mM MgCl2), 3 mM DTT, and 0.4% polyethylene glycol water were added to each well of 384 well plates. Twenty-five nanoliters of a 1 mM test compound solution were added to test wells. […] Negative control wells contained only reaction mixture and test compound.
The plates were again spun at 1200 rpm for 30 seconds.
The plates were covered with lids and incubated for one hour at 30° C. The plates were then transferred to an ACQUEST™ microplate reader. Data was analyzed using data analysis software, and the percent activity of IRE-1α was calculated.
Target sequence in this assay (O75460 19-977): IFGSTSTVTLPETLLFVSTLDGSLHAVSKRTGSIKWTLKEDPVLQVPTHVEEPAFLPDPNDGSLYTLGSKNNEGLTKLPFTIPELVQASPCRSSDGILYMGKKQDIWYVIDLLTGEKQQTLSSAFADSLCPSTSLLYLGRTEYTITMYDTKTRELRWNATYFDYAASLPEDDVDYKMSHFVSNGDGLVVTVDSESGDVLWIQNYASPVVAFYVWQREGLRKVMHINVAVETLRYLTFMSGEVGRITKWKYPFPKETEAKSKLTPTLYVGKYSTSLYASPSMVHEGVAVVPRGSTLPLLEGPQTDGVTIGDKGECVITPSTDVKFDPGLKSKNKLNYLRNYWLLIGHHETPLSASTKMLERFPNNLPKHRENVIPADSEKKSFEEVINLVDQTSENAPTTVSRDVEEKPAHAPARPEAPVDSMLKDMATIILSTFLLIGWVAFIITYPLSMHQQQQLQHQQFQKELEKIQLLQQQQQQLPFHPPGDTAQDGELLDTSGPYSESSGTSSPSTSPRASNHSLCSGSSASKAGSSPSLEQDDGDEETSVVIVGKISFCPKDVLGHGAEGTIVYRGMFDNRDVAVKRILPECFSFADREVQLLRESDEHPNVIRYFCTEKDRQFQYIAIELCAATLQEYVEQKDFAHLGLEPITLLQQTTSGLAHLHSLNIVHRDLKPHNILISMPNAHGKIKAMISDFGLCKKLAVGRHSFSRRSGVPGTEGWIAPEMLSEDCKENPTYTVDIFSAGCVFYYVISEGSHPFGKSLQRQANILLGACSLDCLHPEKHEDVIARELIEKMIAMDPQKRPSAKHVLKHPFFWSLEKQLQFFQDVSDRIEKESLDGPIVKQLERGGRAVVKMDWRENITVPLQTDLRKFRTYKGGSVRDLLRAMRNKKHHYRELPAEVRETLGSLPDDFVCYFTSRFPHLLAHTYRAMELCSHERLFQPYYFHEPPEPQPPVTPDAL

[2] = tested on: RPMI-8226 multiple myeloma cells; test: Proliferation of multiple myeloma cells (CellTiter-Glo); format: cell-based, human; settings: RPMI8226 cells, 24 hours, FIG. 5
Procedure: FIG. 5. Graph showing inhibition of proliferation of multiple myeloma cells by IRE-1α inhibitor 11-28 (Example 11). RPMI-8226 multiple myeloma cells were seeded at 20,000 cells per well in RPMI culture medium containing 1% FBS and the required antibiotics. The plate was incubated overnight at 37° C., 95% air, 5% CO2. The following day, compound 11-28 or medium alone was added to wells, resulting in a final volume of 100 μl per well. The compound concentration ranged from 100 μM to 0 μM, with compounds diluted by a factor of 4. After addition of compound, the plate was incubated at 37° C., 95% air, 5% CO2 for 24 hours. Cell proliferation was measured using the CellTiter-Glo assay (Promega), following the manufacturer's instructions.
Proliferation assays using myeloma cell lines (U266, RPMI8226 and MM.1s) are used to determine ED50. Compounds are used as single agents and in combination with other chemotherapeutic drugs.

primary murine B cells = test: IgM secretion after LPS stimulation of primary murine B cells; format: cell-based, mouse
Procedure: FIG. 9. Inhibition of IgM secretion after LPS stimulation of primary murine B cells with selected IRE-1α inhibitors. […] However, compounds had little effect when at added after 40 hours of stimulation; only slight inhibition at the highest dose. Methods were performed as previously described by Iwakoshi et al., Nature 4, 321-29, 2003 for B cell stimulation, plasma cell differentiation and IgM secretion. Primary B cells were Isolated from BALB/c splenocytes using mouse CD43 Microbeads (Miltenyi cat# 130-049-801) with 1×10^6 cells per treatment. Purified B cells were stimulated in B Cell Media at a final density of 1×10^6/ml/well in 24-well plates with 20 μg/ml LPS (Sigma cat# L4391). IRE-1α inhibitor compound 17-1 was added at various concentrations (50 μM, 10 μM, 2 μM, 0.4 μM and 0.08 μM) at specified time points (t=0, t=24 hr, t=40 hr, etc.) Cells were incubated for 48 hr at 37° C. At end of the incubation, cells were spun in a plate at 1500 rpm/3 min. Supernatants were collected for quantitation for IgM secretion using a mouse IgM ELISA Kit (Bethyl Labs cat# E90-101). B Cell medium included RPMI+10% FBS supplemented with NEAA, HEPES, NaPyr, PSQ, and β-mercaptoethanol.

[3] = tested on: human myeloma RPMI8226 tumor xenografts; test: RPMI8226 myeloma tumor xenograft in SCID mice; format: in vivo, mouse; settings: 0.75 mg/kg IV twice weekly
IRE-1α [4] = target: T1, IRE-1α; test: Phosphorylated IRE-1α and XBP1-splicing in RPMI8226 cells (Western blot, agarose gel); format: cell-based; settings: 24 hour treatment, FIG. 6
Excerpt: FIG. 6. […] The numbers indicate the concentration of bortezomib in nM.

IC50 (IRE-1α [1]; values in text): 30 nM
SMILES: COc1ccc(Br)c(C=O)c1O [6-bromo o-vanillin]

SMILES: COc1cc(-c2cccs2)cc(C=O)c1O [11-28]
inhibition of proliferation [2]: inhibits the proliferation of RPMI8226 myeloma cells

SMILES: CN(C)C(=O)c1ccc(-c2ccc3c(C=O)c(O)ccc3c2)cc1 [17-1, 4-(5-formyl-6-hydroxynaphthalen-2-yl)-N,N-dimethylbenzamide]
IgM secretion (primary murine B cells; added after 40 hours of stimulation): little effect
IgM secretion (primary murine B cells; added at beginning of stimulation and again at 24 hours): blocked IgM secretion at all doses tested down to 100 nM

SMILES: CC(C)C[C@H](NC(=O)[C@H](Cc1ccccc1)NC(=O)c1cnccn1)B(O)O [bortezomib, [(1R)-3-methyl-1-[[(2S)-1-oxo-3-phenyl-2-[(pyrazinylcarbonyl)amino]propyl]amino]butyl]boronic acid]
tumor growth [3]: suppression of tumor growth
levels of phosphorylated IRE-1α and XBP1-splicing (IRE-1α [4]): increases the levels of phosphorylated IRE-1α and XBP1-splicing

IC50 (IRE-1α [1]; Table 3): 80 nM
SMILES: COc1ccc(Br)c(C=O)c1O [drawing 180]

IC50 (IRE-1α [1]; Table 3): 2370 nM
SMILES: COc1cccc(C=O)c1O [drawing 230]

IC50 (IRE-1α [1]; Table 3): 5750 nM
SMILES: COc1cccc(C=O)c1O [drawing 238]

IC50 (IRE-1α [1]; values in text): 3000 nM
SMILES: COc1cccc(C=O)c1O [o-vanillin, 2-hydroxy-3-methoxybenzaldehyde]

Reference: patent US8614253B2, “IRE-1α inhibitors” (MannKind Corporation, priority 2007, dated 2013)
